According to patent US10858384B2, “Synthetic molecule constructs” (KODE BIOTECH LIMITED, priority 2004, dated 2020):

Columns and labels:
[1] = Solubility of synthetic glycolipids in hot PBS; assay type: physicochemical; settings: hot PBS
Source text: In the context of this description the phrase “water soluble” means a stable, single phase system is formed when the synthetic molecule construct is contacted with water or saline (such as PBS) in the absence of organic solvents or detergents, and the term “solution” has a corresponding meaning.
For use in the transformation of cells the first criterion that synthetic glycolipids must satisfy is that they are soluble in aqueous solvents, e.g. phosphate buffered saline.
Initial tests on the molecules were to establish solubility and thus eliminate those molecules that were unsuitable for use in the transformation of cells.

[2] = test system: endometrial cells and embryos; assay: Attachment of transformed endometrial cells to modified embryos; assay type: cell-based; settings: 15 minutes at 37° C.
Method: Modified embryos (BioG-Avidin-BioIgG^B and BioG-Avidin-BioIgM^A) were prepared in accordance with the methods described in the specification accompanying the international application no. PCT/NZ03/00059 (published as WO03/087346).
Two concave glass slides were prepared, one with two wells of synthetic glycolipid Atri-sp-Ad-DOPE (I) inserted endometrial cells and the other with two wells of synthetic glycolipid Btri-sp-Ad-DOPE (VI) inserted endometrial cells.
The embryos were surrounded with endometrial cells. The wells were covered with mineral oil and incubated for 15 minutes at 37° C. Using a wide bore handling pipette each group of embryos were carefully transferred to a fresh drop of M2 media. The embryos were gently washed. The embryos were gently transferred into 2 μL of M2 media on a marked microscope slide. Each drop was overlaid with mineral oil
Under a central plane of focus on an Olympus microscope the number of endometrial cells adhered to the embryos in each group was assessed. The number of cells adhered to each embryo was recorded.

[3] = test system: group O RBCs; assay: Diamed agglutination of RBCs transformed at 4° C. with synthetic glycolipids (weak A, B and AB cells); assay type: cell-based, human; settings: 0.03 mg/mL, anti-A, time = table row
Method: Transformation of RBCs with synthetic glycolipids Atri-sp-Ad-DOPE (I) and Btri-sp-Ad-DOPE (VI) at 4° C. was then evaluated (Tables 25 to 28). These transformations were directed towards the preparation of cells expressing low levels of A, B or A and B glycotopes (“weak A, B and AB cells”).
For the preparation of weak A and B cells transformation solutions (20 μL, Atri-sp-Ad-DOPE (I) at 0.08, 0.05 and 0.03 mg/mL, and Btri-sp-Ad-DOPE (VI) at 0.6, 0.3, 0.15, 0.08, 0.05 and 0.03 mg/mL) in 1× PBS were mixed with washed, packed group O RBCs (60 μL).
For the preparation of weak AB cells transformation solutions (20 μL, Atrii-sp-Ad-DOPE (I) at 0.07, 0.06 and 0.05 mg/mL, and Btri-sp-Ad-DOPE (VI) at 0.3, and 0.2 mg/mL) in 1× PBS were combined in block titre with washed, packed group O RBCs (60 μL). The combinations were: Atri-sp-Ad-DOPE (I) at 0.07 mg/mL+Btri-sp-Ad-DOPE (VI) at 0.3 mg/mL; Atri-sp-Ad-DOPE (I) at 0.07 mg/mL+Btri-sp-Ad-DOPE (VI) at 0.2 mg/mL; Atri-sp-Ad-DOPE (I) at 0.06 mg/mL+Btri-sp-Ad-DOPE (VI) at 0.3 mg/mL; Atri-sp-Ad-DOPE (I) at 0.06 mg/mL+Btri-sp-Ad-DOPE (VI) at 0.2 mg/mL; Atri-sp-Ad-DOPE (I) at 0.05 mg/mL+Btri-sp-Ad-DOPE (VI) at 0.3 mg/mL; and Atri-sp-Ad-DOPE (I) 0.05+Btri-sp-Ad-DOPE (VI) 0.2 mg/mL.
Cells and transformation solutions were placed in a […] fridge. Pipette mixing was performed at intervals. […]

[4] = test system: RBCs; assay: Insertion efficiency: post-transformation solutions concentrated 20x, Diamed serology; assay type: cell-based; settings: post-transformation solution concentrated 20×, from 0.08 mg/mL
Method: In addition, the post-transformation solutions were concentrated 20× and compared in parallel with the transformation solutions of known concentration. Only the post-transformation solutions derived from the 0.08 mg/mL Atri-sp-Ad-DOPE (I) and 0.6 mg/mL Btri-sp-Ad-DOPE (VI) solutions were tested.
Post-transformation solutions (20 μL) were dialysed (pore size 500 Da) against de-ionised water for 2 days. The samples were left to dry in a fumehood for 10 days. At the end of this time they were transferred into a rotavapor flask and set on the rotavapor to rotate under vacuum with no heat overnight. Samples were dried in a water bath at 40° C. and washed over into smaller vessels with chloroform-methanol 2:1 leaving significant amounts of dried cellular material. The chloroform-methanol 2:1 washings were dried down, washed over again into test-tubes with chloroform-methanol 2:1 and dried down. These samples were redissolved in 1 mL of 1× PBS and used for transformation experiments. The cellular material in the bottom of the flasks was washed out with water into another set of tubes.
The post-transformation solutions (from Atri-sp-Ad-DOPE (I) at 0.08 mg/mL and Btri-sp-Ad-DOPE (VI) at 0.6 mg/mL, 20 μL) were added to washed, packed RBCs (60 μL). […]

[5] = test system: RBCs; assay: Column agglutination of RBCs transformed with sterile-filtered vs unfiltered synthetic glycolipid; assay type: cell-based; settings: for Column agglutination: 0.01 mg/mL, anti-A BioClone
Source text: Some Atri-sp-Ad-DOPE (I) had been sterile-filtered through a 0.2 μm filter. To investigate whether transformation would be the same with this product a comparative trial was done.

[6] = test system: RBCs; assay: Detectable transformation ability of synthetic glycolipids (agglutination); assay type: cell-based; settings: agglutination with the appropriate antibody
Source text: The synthetic glycolipid must also be able to insert into the membrane and be recognisable to the appropriate antibody for transformation to be detected by agglutination. Initial tests on the molecules were to establish solubility and thus eliminate those molecules that were unsuitable for use in the transformation of cells.

For `CCCCCCCC/C=C\CCCCCCCC(=O)OC[C@H](COP(=O)(O)OCCNC(=O)CCCCC(=O)NCCCO[C@@H]1O[C@H](CO)[C@H](O)[C@H](O[C@H]2O[C@H](CO)[C@H](O)[C@H](O)[C@H]2NC(C)=O)[C@H]1O[C@@H]1O[C@@H](C)[C@@H](O)[C@@H](O)[C@@H]1O)OC(=O)CCCCCCC/C=C\CCCCCCCC` [Atri-sp-Ad-DOPE (I)], the Water solubility [1] was “Yes”, the “Average number of endometrial cells attached to modified embryos” value ([2]; embryos modified with BioG-Avidin-BioIgG^B) was 2.3 and the “Average number of endometrial cells attached to modified embryos” value ([2]; embryos modified with BioG-Avidin-BioIgM^A) was 7.25. The Agglutination score ([3]; unwashed) was 0, the Agglutination score ([3]; washed) was 0 and the “Score (Diamed serology)” value [4] was 0. The “Difference in transformation between sterile-filtered (0.2 μm) and unfiltered preparation” value [5] was “no significant difference”, the Column agglutination ([5]; sterile-filtered) was 0 and the Column agglutination ([5]; unfiltered) was 0. The Detectable transformation ability [6] was “Yes”.
